Source: patent US5516784A, “Anti-HIV (AIDS) agents” (Schering Corporation, priority 1994, dated 1996)

Biological target: HIV1 protease (Human immunodeficiency virus type 1 group M subtype B, UniProt P04585)
Experiment: Test 3: inhibition of proteolytic activity of HIV-1 protease by scintillation proximity assay (SPA)
Assay type: biochemical
Details: IC50 >500 nM; read-out: Enzyme Assays (SPA) % inhibition
Excerpt: TEST 3-INHIBITION OF PROTEOLYTIC ACTIVITY OF HIV-1-PROTEASE AS DETERMINED BY SCINTILLATION […] ASSAY (SPA).
This is an alternative assay to test #1 and is used to determine the ability of compounds to inhibit the HIV1 protease activity. The SPA assay for HIV1 protease has been developed by Amersham Corporation, Arlington Heights, Ill., and is available for commercial use. In this system the substrate for HIV1 protease, AcN-(I^125)[…]SPA bead, is cleaved by the HIV1 protease at the Phe-Phe bond releasing the I^125 -labelled peptide fragment from the SPA bead. This event causes removal of detectable signal from the microsphere bead indicated by reduction in radioactivity (measured in CPM), which is proportional to the proteolytic activity. The substrate, and the HIV 1 protease were incubated in presence of synthetic compound in various dilutions at room temperature for 40 minutes, and the concentration of the compound required to inhibit the proteolytic activity by 50% (IC50) was determined.

inhibition at 0.5 µM	Compound
46%	CCC(C)[C@H](NC(=O)c1ccc2ccccc2n1)C(=O)N[C@@H](Cc1ccccc1)[C@H](O)COc1ccccc1C(=O)NC(C)(C)C (stereo partly shown) [Compound 38]
36%	CC(C)(C)NC(=O)c1ccccc1OC[C@@H](O)[C@H](Cc1ccccc1)NC(=O)[C@H](CC(N)=O)NC(=O)c1nc2ccccc2nc1O [Compound 64]
36%	CC(C)(C)NC(=O)c1ccccc1OC[C@@H](O)[C@H](Cc1ccccc1)NC(=O)[C@H](CC(N)=O)NC(=O)c1cnc2nc(N)nc(O)c2n1 [Compound 68]
35%	CC(C)(C)NC(=O)c1ccccc1OC[C@H](O)[C@H](Cc1ccccc1)NC(=O)[C@H](CC(N)=O)NC(=O)c1nc2ccccc2nc1O [Compound 63]

Same assay, conditions: SPA; room temperature, 40 minutes; read-out: Enzyme Assays (SPA) IC50

IC50	Compound
200 nM	NC(=O)C[C@H](NC(=O)c1ccc2ccccc2n1)C(=O)N[C@@H](Cc1ccccc1)[C@H](O)CSC1CCCC1C(=O)Nc1ccccc1 (single isomer, unassigned) [Compound 17]
48 nM	CC(C)(C)NC(=O)c1ccccc1OC[C@@H](O)[C@H](Cc1ccccc1)NC(=O)[C@H](CC(N)=O)NC(=O)c1cnc2ccccc2n1 [Compound 60]
> 200 nM	NC(=O)C[C@H](NC(=O)c1ccc2ccccc2n1)C(=O)N[C@@H](Cc1ccccc1)[C@H](O)CSC1CCCC1C(=O)Nc1ccccc1 (stereo partly shown) [Compound 21]
> 200 nM	NC(=O)C[C@H](NC(=O)c1ccc2ccccc2n1)C(=O)N[C@@H](Cc1ccccc1)[C@H](O)CSC1CCCC1C(=O)Nc1ccccc1 (single isomer, unassigned) [Compound 15]
> 500 nM	CC(C)(C)NC(=O)c1cccnc1OC[C@H](O)[C@H](Cc1ccccc1)NC(=O)[C@H](CC(N)=O)NC(=O)c1ccc2ccccc2n1 [Compound 6]
> 500 nM	CCC(C)[C@H](NC(=O)OC(C)(C)C)C(=O)N[C@@H](Cc1ccccc1)[C@H](O)CSc1ccccc1C(=O)NC(C)(C)C (stereo partly shown) [IN 7]
> 500 nM	CC(C)(C)NC(=O)c1ccccc1OC[C@@H](O)[C@H](Cc1ccccc1)NC(=O)[C@H](CC(N)=O)NC(=O)c1nc2ccccc2nc1O [Compound 64]
245 nM	Cc1c(C)c2c(c(C)c1O)CCC(C)(C(=O)N[C@@H](CC(N)=O)C(=O)N[C@@H](Cc1ccccc1)[C@@H](O)COc1ccccc1C(=O)NC(C)(C)C)O2 (stereo partly shown) [Compound 71]

Further lines, the compound ahead of its results:

Compound	IC50
CC(C)(C)NC(=O)c1ccccc1OC[C@@H](O)[C@H](Cc1ccccc1)NC(=O)[C@H](CC(N)=O)NC(=O)c1cnnc2ccccc12 [Compound 66]	124 nM
CCC(C)[C@H](NC(=O)c1ccc2ccccc2n1)C(=O)N[C@@H](Cc1ccccc1)[C@H](O)COc1ccccc1C(=O)NC(C)(C)C (stereo partly shown) [Compound 38]	> 500 nM
CC(C)(C)NC(=O)c1c(OC[C@@H](O)[C@H](Cc2ccccc2)NC(=O)[C@H](CC(N)=O)NC(=O)c2ccc3ccccc3n2)ccc2ccccc12 [Compound 10]	110 nM
CC(C)(C)NC(=O)c1cccc(SC[C@H](O)[C@H](Cc2ccccc2)NC(=O)[C@H](CC(N)=O)NC(=O)c2ccc3ccccc3n2)c1 [Compound 25]	> 200 nM
CCC(C)[C@H](NC(=O)c1ccc2ccccc2n1)C(=O)N[C@@H](Cc1ccccc1)[C@H](O)CSc1ccccc1C(=O)NC(C)(C)C (stereo partly shown) [Compound 36]	132 nM
CC(C)(C)NC(=O)c1ccccc1OC[C@H](O)[C@H](Cc1ccccc1)NC(=O)[C@H](CC(N)=O)NC(=O)c1cc(O)c2ccccc2n1 [Compound 61]	410 nM
CC(C)(C)NC(=O)c1cccc(SC[C@@H](O)[C@H](Cc2ccccc2)NC(=O)[C@H](CC(N)=O)NC(=O)c2ccc3ccccc3n2)c1 [Compound 26]	> 200 nM
CC(C)(C)NC(=O)c1ccccc1OC[C@@H](O)[C@H](Cc1ccccc1)NC(=O)[C@H](CC(N)=O)NC(=O)c1cnc2nc(N)nc(O)c2n1 [Compound 68]	> 500 nM
CC(C)(C)NC(=O)c1ccccc1OC[C@H](O)[C@H](Cc1ccccc1)NC(=O)[C@H](CC(N)=O)NC(=O)c1nc2ccccc2nc1O [Compound 63]	> 500 nM
CN(C)C(=O)C[C@H](NC(=O)c1ccc2ccccc2n1)C(=O)N[C@@H](Cc1ccccc1)[C@H](O)CSc1ccccc1C(=O)NC(C)(C)C [Compound 42]	> 200 nM
CC(C)(C)NC(=O)c1ccccc1OC[C@H](O)[C@H](Cc1ccccc1)NC(=O)[C@H](CC(N)=O)NC(=O)c1cnnc2ccccc12 [Compound 65]	500 nM

Same assay, conditions: read-out: Enzyme Assays (SPA) IC50

Compound	IC50
CC(C)(C)NC(=O)c1ccccc1OC[C@H](O)[C@H](Cc1ccccc1)NC(=O)[C@H](CC(N)=O)NC(=O)c1ccc2c(c1)C(=O)c1ccccc1C2=O [Compound 69]	84 nM
CC(C)(C)NC(=O)c1ccccc1OC[C@H](O)[C@H](Cc1ccccc1)NC(=O)[C@H](CC(N)=O)NS(=O)(=O)c1ccc2ccccc2c1 [Compound 73]	425 nM
